Legend:
[1] = system: phosphorylation of Akt (Ser473), GSK3β (Ser9), p70S6K (Thr389) and S6 (Ser235,236) in A549 cells; test: Western blot of Akt and downstream signaling in cells; assay type: cell-based, human
From the text: (§1) Proteins are resolved by SDS-PAGE and transferred onto polyvinylidene difluoride membranes (Millipore, Mass.), which are blocked with nonfat milk and hybridized with specific primary antibodies. The protein bands are visualized using an enhanced chemiluminescence reagent (GE Healthcare, Pittsburgh, Pa.) after hybridization with a horseradish peroxidase-conjugated secondary antibody.
(§2) According to the kinase profiler assay results, Akt2 also might be a potential target of Compound 1. An Akt1 and Akt2 in vitro kinase assays was performed.

[2] = system: phosphorylation of Akt (Ser473), GSK3β (Ser9), p70S6K (Thr389) and S6 (Ser235,236) in H520 cells; test: as above; assay type: cell-based, human
From the text: as §1, §2

[3] = system: human A549 lung cancer cell xenografts; test: A549 xenograft in athymic nude mice, intraperitoneal; assay type: in vivo
Method: Tumor tissues from mice are embedded in a paraffin block and subjected to hematoxylin and eosin (H&E) staining and immunohistochemistry. Tumor tissues are deparaffinized and hydrated, then permeabilized with 0.5% Triton X-100/1 PBS for 10 min, hybridized with Ki-67 (1:500) as the primary antibody and an HRP-conjugated goat anti-rabbit or mouse IgG antibody is used as the secondary antibody. After developing with 3,30-diaminobenzidine, the sections are counterstained with H&E. All sections are observed by microscope and the Image-Pro Plus software (v.4) program (Media Cybernetics).
The ability of Compound 1 to inhibit the growth of human A549 lung cancer cell xenografts in athymic nude mice was then evaluated. Tumor volumes were measured twice a week and mouse weights were determined once a week. Compound 1 caused a marked reduction in tumor size in the human A549 xenograft model. In mice treated with Compound 1 at 20 mg/kg, twice a week intraperitoneally, mean tumor volumes were reduced to 164 mm^3 in comparison with control group (408 mm^3) (P<0.01). […] Moreover, the effects of Compound 1 on a tumor proliferation marker were evaluated by immunohistochemistry and H&E staining of A549 tumor tissues after the 31 days of treatment.

MRC-5 normal lung cells = test: Cytotoxicity (MTS assay); assay type: cell-based
Method: To estimate the cytotoxicity of Compound 1, cells are seeded (8×10^3 cells per well) in 96-well plates and cultured overnight. Cells are fed with fresh medium and treated with different doses of Compound 1. After culturing for various times, the cytotoxicity of Compound 1 is measured using an MTS assay kit (Promega, Madison, Wis.) according to the manufacturer's instructions.
The toxicity of Compound 1 on both MRC-5 normal lung cells and A549 lung cancer cells was then examined.

Akt2 = Akt2 (Homo sapiens, UniProt P31751); test: Akt2 in vitro kinase assay; assay type: biochemical
Sequence of Akt2 (P31751 whole entry, species assumed): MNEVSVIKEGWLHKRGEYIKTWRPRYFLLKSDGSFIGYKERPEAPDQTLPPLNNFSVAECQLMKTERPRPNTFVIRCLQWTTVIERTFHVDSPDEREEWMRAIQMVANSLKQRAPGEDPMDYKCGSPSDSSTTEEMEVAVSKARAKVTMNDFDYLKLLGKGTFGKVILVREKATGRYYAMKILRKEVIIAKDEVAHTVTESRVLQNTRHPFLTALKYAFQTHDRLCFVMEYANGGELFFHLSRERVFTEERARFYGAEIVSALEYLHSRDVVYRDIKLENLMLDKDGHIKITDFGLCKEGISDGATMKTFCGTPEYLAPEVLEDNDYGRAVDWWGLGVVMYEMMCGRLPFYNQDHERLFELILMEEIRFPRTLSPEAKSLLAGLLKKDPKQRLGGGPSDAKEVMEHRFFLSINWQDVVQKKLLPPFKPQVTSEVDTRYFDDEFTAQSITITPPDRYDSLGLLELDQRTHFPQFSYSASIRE
Method: as §2

[4] = system: A549 lung cancer cells xenograft; test: Xenograft mouse model, oral gavage (Example 7); assay type: in vivo; settings: 40 mg/kg oral gavage 5 times a week
From the text: Athymic nude mice (6 week old nu/nu female mice, Harlan Laboratory, Minneapolis, Minn.) were inoculated in the right flank with A549 lung cancer cells (3*10^6 cells/mouse). Mice were maintained under “specific pathogen-free” conditions based on the guidelines established by the University of Minnesota Institutional Animal Care and Use Committee. Tumors were allowed to grow to an average of ˜53.5±34.5 mm^3 and then mice were divided into 2 equal groups with a similar average tumor volume (group 1; n=15), vehicle only; (group 2, […]), compound 1 at 40 mg/kg. Treatment with vehicle or compound 1 was initiated on Day 13 after inoculation of cells and continued to Day 80 (˜9 wks) and was administered by oral gavage 5 times a week. Tumor volume was measured once a week and body weight was measured once a week. Compound 1 was prepared in 2.5% DMSO/5% PEG 400/5% Tween-80 in 1×PBS and sonicated for ˜20 minutes. […] Data are shown as means±S.E (FIG. 1).

O=C(/C=C/c1ccc2c(c1)OCO2)/C=C1/C(=O)Nc2ccccc21 [Compound 1]
effect on the phosphorylation of Akt or its downstream signaling molecules [1]: no effect | effect on the phosphorylation of Akt or its downstream signaling molecules [2]: no effect | loss of body weight ([3]; 20 mg/kg, twice a week intraperitoneally): no obvious loss | mean tumor volume ([3]; 20 mg/kg, twice a week intraperitoneally, control group 408 mm^3, P<0.01): 164 mm^3 | expression of Ki-67 in A549 tumor tissues (immunohistochemistry) ([3]; after the 31 days of treatment): markedly decreased | cytotoxic effects on MRC-5 normal lung cells (MRC-5 normal lung cells; 1 μM or less): no obvious cytotoxic effects | toxicity to MRC-5 normal cells (MRC-5 normal lung cells; 5 μM, 48 hours): not | toxicity on MRC-5 normal lung cells (MRC-5 normal lung cells; concentrations greater than 10 μM): substantial toxicity | inhibition at 5 µM (Akt2; 5 μM): 52% | concentration inhibiting Akt2 kinase activity in vitro (Akt2; discussion statement): ≥ 1 µM | final tumor volume (mean±S.E.) ([4]; Day 13 to Day 80, vehicle 1004±140.1, in mm³ (unit assumed)): 403.2±50.0 | toxicity in mice ([4]; ~9 wks): No toxicity

Source: patent US9796671B2, “Aurora kinase inhibitors” (REGENTS OF THE UNIVERSITY OF MINNESOTA, priority 2012, dated 2017)
